For 13 compounds, TGI and GI50 results are on record in PubChem BioAssay (NCI).

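Interpolation was linear, between the two tested concentrations surrounding the appropriate level; five concentrations were tested over 48 hours in 96-well plates. GI50 marks 50% less growth. TGI marks complete inhibition of growth.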 Where a SMILES comes first, the peptide text is derived from it. [ ]: non-standard residue; d: D form. The star is where a group is joined. NMeAc5c = CNC1(C(=O)O)CCCC1; Boc = CC(C)(C)OC(=O)*; OBn = c1ccc(CO*)cc1

Experiment in all cases: growth of human tumour cells (NCI), 48 h
Test [1] relates to HT29 colon.
For test [2], the system named is HS 578T breast.
Test [3] concerns HOP-92 NSCLC.
In test [4] the test system is MALME-3M melanoma.
For test [5], the system named is SK-MEL-28 melanoma.
Test [6] deals with UACC-62 melanoma.
The subject of test [7] is DU-145 prostate.
Test [8] deals with SF-539 CNS.
Test [9] deals with SN12C renal.
Test [10] concerns HCT-116 colon.
The subject of test [11] is BT-549 breast.

As to `CC(=O)OC1CC(OC2C(O)CC(OC3C(O)CC(OC4CCC5(C)C(CCC6C5CC(O)C5(C)C(C7=CC(=O)OC7)CCC65O)C4)OC3C)OC2C)OC(C)C1OC1OC(CO)C(O)C(O)C1O` (centres undefined), the TGI stood at 0.252 µM in test [1]; 0.525 µM in [2]; 0.517 µM in test [3]; 0.249 µM in test [4]; 0.979 µM in test [5]; 0.404 µM in [6]. Further, the TGI was 0.106 µM in test [7]; 0.0891 µM in test [8]; 0.112 µM in test [9]; 0.139 µM in test [10]; 0.167 µM in test [11]. Besides, the GI50 in [9] is 0.0194 µM.

As for `Cc1ccc(C(=O)O)cc1S(=O)(=O)Nn1cnc2ccc(S(=O)(=O)Nc3ccccc3C(=O)O)cc2c1=O`, the TGI in test [1], in [2], in test [3], in test [4], in test [5] and in [6] was > 100 µM throughout. Also, the TGI in [7], in test [8], in [9], in test [10] and in test [11] was > 100 µM in each case.

Take `C1CN(c2nc3c(nnc4nc(N5CCOCC5)sc43)s2)CCO1`: the TGI in [1], in [2], in [3], in test [4], in test [5] and in test [6] was > 100 µM each time. The TGI in [7], in test [8], in test [9], in test [10] and in test [11] was > 100 µM in each case.

`COC(=O)c1cc(=O)nc2sc3cccc(C)c3n12`: the TGI in test [1] was > 100 µM; in test [2] it was > 100 µM; in test [3], 69.1 µM; in test [4] it was 70.1 µM; in test [5], > 100 µM; in test [6], > 100 µM. Moreover, the TGI in [7], in test [8], in [9], in [10] and in [11] was > 100 µM each time.

For the compound `CC(C)=CCc1c2c(c3occ(-c4ccc(O)cc4)c(=O)c3c1O)CC(C(C)(C)O)O2` (centres undefined), the TGI in [1] stood at 25.8 µM; in test [2], 69.5 µM; in test [3], 33.5 µM; in [4], 36.3 µM; in test [5] it was 58.5 µM; in test [6], 30 µM. The TGI in test [7] worked out at 29.4 µM; in test [8], 41.1 µM; in [9], 38.5 µM; in test [10], 45.3 µM; in test [11], 31 µM.

Turning to `O=c1[nH]c(Nc2cccc(CC(F)(F)F)c2)nc2nc[nH]c12`, the TGI in test [1], in test [2], in [3], in test [4], in test [5] and in [6] was > 100 µM throughout. Further, the TGI in [7], in [8], in test [9], in [10] and in test [11] was > 100 µM throughout.

Consider `C=CC1(C)CCC2C(=CCC3C2(C)CC(O)C(O)C3(C)COC2OC(C(=O)O)C(O)C(O)C2O)C1` (centres undefined) (tested in a mixture with another compound), for which the TGI in [1], in [2], in test [3], in test [4], in test [5] and in [6] was > 100 µM in each case. In addition, the TGI in [7], in [8], in test [9], in test [10] and in [11] was > 100 µM each time.

As to `CN(C(=O)C(Cc1ccccc1)NC(=O)OC(C)(C)C)C1(C(=O)NC(Cc2ccccc2)C(=O)OCc2ccccc2)CCCC1` (stereo not drawn) (Boc-Phe-[NMeAc5c]-Phe-OBn; configuration not given here), the TGI was 56.7 µM in test [1]; > 100 µM in test [2]; > 100 µM in test [3]; > 100 µM in [4]; > 100 µM in test [5]; 71.2 µM in test [6]. Also, the TGI in [7], in [8], in test [9], in test [10] and in test [11] was > 100 µM in each case.

As to `CN1CCc2cc(N)cc3c2C1Cc1ccc(O)c(O)c1-3` (centres undefined), the TGI in test [1] is > 100 µM; in test [2] it was > 100 µM; in [3], > 100 µM; in test [4], 88.2 µM; in [5], > 100 µM; in test [6] it was 70.4 µM. For the same compound, the TGI in test [7], in [8], in [9], in test [10] and in test [11] was > 100 µM throughout.

With `ClCCN1CCC2(CC1)SSC1(CCN(CCCl)CC1)S2`, the TGI in test [1] was > 100 µM; in [2], > 100 µM; in [3], 29.2 µM; in [4], 73.6 µM; in test [5], > 100 µM; in [6], 71 µM. In addition, the TGI in test [7] was > 100 µM; in test [8] it was 56.3 µM; in [9], 72.8 µM; in [10] it was > 100 µM; in test [11], > 100 µM.

In the case of `COc1ccc(C2CC(c3c(O)ccc4ccccc34)=NN2C(C)=O)cc1OC` (centres undefined), the TGI in [1] is > 100 µM; in test [2], > 100 µM; in test [3], > 100 µM; in test [4], 92.1 µM; in [5], > 100 µM; in [6] it was 29.7 µM. Further, the TGI in test [7] is 92 µM; in test [8], 48.9 µM; in test [9], > 100 µM; in test [10], 28.6 µM; in test [11], 43.9 µM.

As for `O=C1C=CC(=O)c2c1ccc1c3ccccc3n(CCCCCCCCCCCCn3c4ccccc4c4ccc5c(c43)C(=O)C=CC5=O)c21`, the TGI in [1], in [2], in test [3], in test [4], in test [5] and in [6] was > 100 µM each time. For the same compound, the TGI in [7], in test [8], in [9], in test [10] and in [11] was > 100 µM throughout.

On to `COc1ccc(N/N=C2\CCOc3ccc(C)cc3C2=O)cc1`, for which the TGI in [1] is 61.1 µM; in test [2], > 100 µM; in [3], > 100 µM; in [4], 38.7 µM; in test [5], > 100 µM; in test [6], 80.4 µM. In addition, the TGI is > 100 µM in test [7]; > 100 µM in test [8]; > 100 µM in [9]; > 100 µM in test [10]; 87.5 µM in test [11].
